We go through one compound from patent US8440634B2, “Bicyclic derivatives of morphine-6-glucuronide, preparation method thereof and use of same in therapeutics” (Sanofi, priority 2008, dated 2013).

The subject of data set [1] is nociceptive reflex response (tail removal caused by painful heat stimulus). Put plainly: "Tail-Flick" test, analgesic activity. The class given is in vivo, male Swiss mice. The settings on record: mice. As for the experimental part:
Tests consisting in measuring the in vivo activity of the compounds of the invention on a nociceptive reflex response were performed. In this approach, the latency of the animal's nociceptive reflex response is measured as a pain indicator.
The analgesic activity was determined by means of the “tail-flick” test in male Swiss mice (Iffa Credo). This test is based on the spontaneous nociceptive reflex of removal of the animal's tail caused by a painful heat stimulus (infrared source). The “tail-flick” test (D'Amour-Smith test, 1941, Pharmacol. Exp. Ther.; 72: 74-79) consists, after administering a product, in placing a mouse's tail at the focal point of the infrared source so as to produce a nociceptive heat stimulus (surface temperature of about 55-60° C.). The mouse's reaction time (RT) (latency between the moment when the light beam is switched on and the moment when the mouse removes its tail) was measured in duplicate at different times ranging from 20 minutes to 120 minutes after administration of the product. The heat intensity is regulated such that this removal reflex is between 0.5 and 3.5 seconds in the control animals, and arbitrarily represents the criterion for minimum analgesia (0%). Two reaction time measurements were taken before administration of the product for each mouse, to establish a baseline measurement time. A maximum time of 8 seconds was chosen as the maximum reaction time so as not to induce tissue damage by burning the animals, and arbitrarily represents the criterion for maximum analgesia (100%). The reaction time is increased by the analgesics relative to a control animal not receiving any treatment. The products were administered subcutaneously and orally at doses of between 1.25 and 30 mg/kg. […]
The percentage of analgesic activity (% MPE) is determined by the following formula: %MPE=(RTpost-administration−RTpre-administration)*100/(RTmax−RTpre-administration).

Each structure is given as a SMILES string.

`CN1CC[C@]23c4c5ccc(O)c4O[C@H]2C(O[C@@H]2OC(c4nc6n(n4)CCC(O)N6)[C@@H](O)C(O)C2O)C=CC3[C@H]1C5` (stereo partly drawn) [morphin-6-yl 5-C-(5-hydroxy-4,5,6,7-tetrahydro[1,2,4]triazolo[1,5-a]pyrimidin-2-yl)-β-D-xylopyranoside] gave a melting point of 201 °C. For the same compound, the ED50 in data set [1] (Mus musculus, sc, 1 h, subcutaneous, determined 60 minutes after administration) is below 1.25 mg/kg. For the same compound, the “duration of the analgesic action” value in data set [1] (subcutaneous administration) was “more than 120 minutes”. Besides, the “maximum percentage of analgesic activity (% MPE max index)” value in data set [1] (subcutaneous, dose of 1.25 mg/kg) is on record as 80%.
